Literature values in patent publication US20230128032A1, “Early Drug Interventions to Reduce COVID-19 Related Respiratory Distress, Need for Respirator Assist and Death” (Curtails LLC, priority 2020, published 2023).
Bridges are numbered along the chain shown (N, C = ends). Where no end group is shown, it is not given here.

Experiments:
[1] = system: patients with pulmonary arterial hypertension; details: racecadotril treatment
isolated perfused lung = details: increased capillary pressure, hypoxia or inflammatory stimuli such as detergents or prostaglandins
[2] = system: patients with acute lung injury; details: intravenous infusion, mechanical ventilation with positive end-expiratory pressure
mice = details: ANP pretreatment
[3] = system: intensive care patients without heart disease

CC(=O)SCC(Cc1ccccc1)C(=O)NCC(=O)OCc1ccccc1 (stereo not shown) [racecadotril]
increase in plasma cGMP levels [1]: 106% | increase in the plasma ANP concentration [1]: 79% | reduction in pulmonary vascular resistance [1]: 14%

ANP: synthetic form of the GC-A agonist peptide atrial natriuretic peptide (SLRRSSCFGGRMDRIGAQSGLGCNSFRY; disulfide 7-23; ends not checked; UniProt P01160 124-151, looked up)
anti-oedematic action in isolated perfused lung (isolated perfused lung): direct anti-oedematic action | pulmonary oedema induced by congestive heart failure (dogs): attenuated | lung injury score [2]: improved | pulmonary gas exchange [2]: improved | pulmonary oedema induced by lung ischaemia-reperfusion injury (rodents): attenuated | lung injury, inflammation and endothelial barrier dysfunction induced by gram-negative bacterial wall LPS or Staphylococcus Aureus infection (mice): protected | pulmonary oedema [3]: diminished
